{"source": "patent US20230002344A1", "about": "“NOVEL BENZOTHIOPHENE DERIVATIVES AND USE THEREOF FOR STIMULATING MITOCHONDRIAL TURNOVER” (NIBN, The National Institute For Biotechnology In The Negev …, priority 2019, published 2023)", "format_in_all_cases": "cell-based", "key": {"[1]": {"test_system": "mouse islets", "experiment": "Glucose stimulation insulin secretion assay", "details": "25 uM 24 h pretreatment", "method": "FIG. 12A show mouse islets were pre-incubated with SPB08007 (25 uM) or DMSO (0.1%) for 24 h. Islets were adapted to KRB media containing glucose 2 mM for 1 h, followed by media exchange containing glucose 2 mM (basal) or 12 mM (stimulated). After 1 h, Insulin released in the media was measured by ELISA. […] N=3. *p<0.05 vs. DMSO basal. ***p<0.001 vs. DMSO.\nIslet isolation. Islets were isolated from DBA/2 mice. Briefly, pancreata of anesthetized mice were infused with collagenase (1 mg/ml, type XI, Sigma-Aldrich, Rehovot, Israel), excised, and incubated for 30 min at 37° C. The digested tissue was vortexed, filtered and washed in HBSS (Biological Industries) containing 0.5% BSA (Sigma). The pellet was resuspended in RPMI medium 1640 supplemented with 10% FCS, 50 units/ml penicillin, and 50 μg/ml streptomycin (all from Biological Industries). Islets were collected on a 100-μm cell strainer (BD, Falcon) and hand-picked using stereoscope (Zeiss, Oberkochen, Germany)\nGlucose stimulation insulin secretion assay. After 24-hour pretreatment with SPB08007, 25 uM, islets were washed twice with PBS (Biological Industries, Bet-Haemek, Israel). For basal insulin secretion, the islets were incubated with Krebs-Ringer Bicarbonate (KRB) buffer supplemented with 0.5% BSA and 2 mM glucose for 30 min at 37 deg. C and 5% CO2. For stimulated insulin secretion, the buffer was replaced with KRB buffer supplemented with 0.5% BSA and 16 mM glucose and the islets were incubated for additional 60 min. Supernatant insulin content was measured by ELISA (Merck Millipore, Burlington, Mass.)."}, "[2]": {"test_system": "INS1 cells", "experiment": "Ubiquitinated mitochondrial proteins (anti-ubiquitin blot)", "details": "25 uM, 24 h", "method": "INS1 cells were treated with SPB08007 (25 uM) or DMSO (0.1%) for 24 h. FIG. 17A: total mitochondrial protein isolated from 4×10^7 cells were loaded into SDS-PAGE gel previously added of Stain Free reagent, which was used to detect total protein bands in the BioRad Bio Lab gel reader. Protein was transferred into PVDF membrane, blotted to anti-ubiquitin. FIG. 17B: Quantification of total ubiquitin relative to total mitochondrial proteins. The quantification is expressed relative to DMSO, control. *p=0.001.\nCell treatments and mitochondrial extraction. INS1 cells were treated with SBP08007 or MWP00839 25 uM for 24 h. Mitochondrial and cytosolic fractions from INS1 cells were performed by using the Mitochondria Isolation Kit for Cultured Cells (Pierce). INS1 cells were lysed in a hypotonic buffer (10 mM NaCl, 1.5 mM MgCl2, and 10 mM Tris.HCl, pH 7.5), and mitochondria were extracted in a Dounce homogenizer in mitochondrial buffer (1 mM EDTA, 210 mM mannitol, 70 mM sucrose, and 5 mM Tris.HCl, 7.5), followed by centrifugation at 1,300×g for 10 min at 4° C. The supernatant was further centrifuged at 17,000×g for 15 min at 4° C. to pellet the mitochondria. […]\nWestern blot. […] Stain free total protein labeling was imaged in Image Lab 6.0 Software (BioRad), which was used for quantification of the mitochondria and normalization to total protein staining."}, "[3]": {"test_system": "INS1 cells expressing mCherry-GFP", "experiment": "mCherry-GFP-Fis1101-152 determination of mitophagy", "source_text": "To corroborate the increase in mitochondrial clearance, we determined mitophagy by testing the compounds in INS1 cells expressing mCherry-GFP, a mitochondrial probe that emits green and red fluorescence under physiologic pH but red fluorescence only under acidic pH (such as that occurring in autolysosomes) and is therefore used for quantifying mitophagy. Unlike MitoTimer, which captures the accumulating effect of mitochondrial turnover, mCherry-GFP captures mitophagy at the time that it occurs. Since the timing of the induction of mitophagy by the hits was not known, we did a time-lapse. The cells were treated with the hits for 2, 8 and 18 hours. While after 2 hours and 18 hours, the molecules tended to increase the number of mitochondria inside autophagosomes (data not shown), only after 8 hours was this increase significant.\nmCherry-GFP-Fis1101-152 determination of mitophagy. INS1 cells were seeded into 4 compartment […]™ glass bottom cell culture dishes at a density of 2*10^4 cells/compartment. After 48 hours cells were transduced with an adenoviral construct encoding the fluorescent mitophagy reporter mCherry-GFP-Fis1101-152 for 24 hours. A media change containing the indicated treatment concentration or 0.1% DMSO as vehicle control was performed 8 hours before the imaging session. Imaging was performed using a 63× Plan Neofluar objective and the Airyscan module of a Zeiss LSM880 confocal microscope. 25 visual fields containing 59-85 cells in total were imaged per condition. The experiment was repeated three times independently. Image analysis was performed with FIJI ImageJ 1.51p and CellProfiler 2.2.0 rev ac0529e. Briefly, individual cells were cropped and background was subtracted using a median filter assisted processing method (Dunn, K. W., Kamocka, M. M. McDonald, J. H. (2011) A practical guide to evaluating colocalization in biological microscopy. Am. J. Physiol. Cell Physiol. 300, C723-C742). Ratios of red/green fluorescence channels were computed and mitophagy positive structures were recognized based on a lower ratio cut-off of 2.5 of red over green. Mitophagy events per cell were determined by the following formula. […]\nData were normalized to DMSO controls to account for day to day variation. […] Significant treatment differences were determined using One-way ANOVA and Tukey post-hoc analysis. […]\nThe impact of the hits on mitochondrial turnover was further confirmed by a mitophagy-specific assay, a protein with a tandem mCherry-GFP tag attached to the localization signal of the protein FIS at the OMM. […] When mitochondria enter the lysosomes, the GFP fluorescence is quenched, the remaining red fluorescence is seen as red puncta, representing the undergoing mitophagy events."}}, "data": [{"smiles": "CC(=O)N/C(=C\\c1sc2ccccc2c1C)C(=O)O", "note": "[SPB08007]", "values": [{"measurement": "insulin secretion fold (glucose stimulated/basal)", "setting": "[1]", "result": "higher secretion fold"}, {"measurement": "basal insulin secretion", "setting": "[1]; 2 mM glucose", "result": "significantly reduced"}, {"measurement": "glucose-stimulated insulin secretion", "setting": "[1]; 16 mM of glucose", "result": "maintaining the levels"}, {"measurement": "ubiquitination of mitochondrial proteins", "setting": "[2]", "result": "less ubiquitinated"}, {"measurement": "time of peak formation of acidic puncta", "setting": "[3]; 25 uM", "result": 8, "unit": "h"}, {"measurement": "number of acidic puncta (mitophagy events per cell)", "setting": "[3]; 25 uM, 8 h, vs DMSO", "result": "significantly increased"}, {"measurement": "number of mitophagy events at 18 h", "setting": "[3]; 25 uM, 18 h", "result": "returned to control levels"}, {"measurement": "number of red fluorescent dots in acidic vesicles (mitophagy)", "setting": "[3]; 8 hours", "result": "increased"}]}]}
